From the supplement of paper PMC10307832

Experiments:
Assay in all cases: relative viability (nuclei count vs DMSO), 5 days (fraction); higher = more cells survive
IPA-3 + Tozasertib = compound: C1=CC=C2C(=C1)C=CC(=C2SSC3=C(C=CC4=CC=CC=C43)O)O [IPA-3] + Cc1cc(Nc2cc(N3CCN(C)CC3)nc(Sc3ccc(NC(=O)C4CC4)cc3)n2)n[nH]1 [Tozasertib] (partner 0.1 µM)
Procedure, shortened: (§1)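 Medians of duplicate plates are given as relative viability. That measure is the nuclei count in treated wells divided by the count in vehicle wells. Counts were taken on 4× images of lung cancer cell lines in 1536-well plates, 5 days after pin-tool dosing the day after seeding with one drug alone or a fixed anchor-drug dose plus five library-drug doses (not always all listed) in √10 steps.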

IPA-3 + Vorinostat = compound: C1=CC=C2C(=C1)C=CC(=C2SSC3=C(C=CC4=CC=CC=C43)O)O [IPA-3] + O=C(CCCCCCC(=O)Nc1ccccc1)NO [Vorinostat] (partner 1 µM)
Procedure, shortened: as §1

Doramapimod + Linsitinib = compound: Cc1ccc(-n2nc(C(C)(C)C)cc2NC(=O)Nc2ccc(OCCN3CCOCC3)c3ccccc23)cc1 [Doramapimod] + C[C@]1(O)C[C@@H](c2nc(-c3ccc4ccc(-c5ccccc5)nc4c3)c3c(N)nccn32)C1 [Linsitinib] (partner 1 µM)
Procedure, shortened: as §1

RAF265 + Phenformin = compound: Cn1c(Nc2ccc(C(F)(F)F)cc2)nc2cc(Oc3ccnc(-c4ncc(C(F)(F)F)[nH]4)c3)ccc21 [RAF265] + N=C(N)NC(=N)NCCc1ccccc1 [Phenformin] (partner 250 µM)
Procedure, shortened: as §1

| Cell Line | relative viability (IPA-3 + Tozasertib; first compound 0.2 µM) | relative viability (IPA-3 + Tozasertib; first compound 0.6325 µM) | relative viability (IPA-3 + Tozasertib; first compound 2 µM) | relative viability (IPA-3 + Tozasertib; first compound 6.325 µM) | relative viability (IPA-3 + Tozasertib; first compound 20 µM) | relative viability (IPA-3 + Vorinostat; first compound 0.2 µM) | relative viability (IPA-3 + Vorinostat; first compound 0.6325 µM) | relative viability (IPA-3 + Vorinostat; first compound 2 µM) | relative viability (IPA-3 + Vorinostat; first compound 6.325 µM) | relative viability (IPA-3 + Vorinostat; first compound 20 µM) | relative viability (Doramapimod + Linsitinib; first compound 0.02 µM) | relative viability (Doramapimod + Linsitinib; first compound 0.06325 µM) | relative viability (Doramapimod + Linsitinib; first compound 0.2 µM) | relative viability (Doramapimod + Linsitinib; first compound 0.6325 µM) | relative viability (Doramapimod + Linsitinib; first compound 2 µM) | relative viability (RAF265 + Phenformin; first compound 0.01 µM) | relative viability (RAF265 + Phenformin; first compound 0.03162 µM) | relative viability (RAF265 + Phenformin; first compound 0.1 µM) | relative viability (RAF265 + Phenformin; first compound 0.3162 µM) | relative viability (RAF265 + Phenformin; first compound 1 µM) |
| --- | --- | --- | --- | --- | --- | --- | --- | --- | --- | --- | --- | --- | --- | --- | --- | --- | --- | --- | --- | --- |
| NCI-H2085 | 0.907 | 0.748 | 0.823 | 0.908 | 0.951 | 0.868 | 0.756 | 0.819 | 0.726 | 0.957 | 0.898 | 0.939 | 0.873 | 0.876 | 0.864 | 0.858 | 0.683 | 0.742 | 0.642 | 0.644 |
| NCI-H2087 | 0.273 | 0.349 | 0.274 | 0.221 | 0.253 | 0.72 | 0.841 | 0.727 | 0.668 | 0.821 | 0.976 | 1.13 | 0.939 | 0.962 | 0.951 | 0.512 | 0.413 | 0.377 | 0.331 | 0.287 |
| NCI-H2126 | 0.922 | 0.78 | 0.875 | 0.842 | 0.872 | 0.822 | 0.784 | 0.746 | 0.753 | 0.892 | 0.668 | 0.678 | 0.642 | 0.693 | 0.625 | 0.508 | 0.551 | 0.558 | 0.512 | 0.459 |
| NCI-H2228 | 0.245 | 0.255 | 0.29 | 0.301 | 0.294 | 0.953 | 0.809 | 0.633 | 0.552 | 0.737 | 0.762 | 0.449 | 0.632 | 0.65 | 0.464 | 0.287 | 0.387 | 0.357 | 0.203 | 0.186 |
| NCI-H2347 | 0.585 | 0.598 | 0.614 | 0.593 | 0.656 | 0.768 | 0.601 | 0.634 | 0.506 | 0.638 | 1.04 | 0.974 | 0.96 | 1.01 | 0.846 | 0.338 | 0.426 | 0.394 | 0.218 | 0.166 |
| NCI-H2405 | 0.796 | 0.755 | 0.727 | 0.748 | 0.774 | 1.17 | 1.11 | 1.11 | 0.922 | 1.04 | 0.973 | 0.869 | 0.933 | 1.27 | 0.852 | 0.424 | 0.372 | 0.384 | 0.344 | 0.261 |
| NCI-H3122 | 0.431 | 0.4 | 0.381 | 0.509 | 0.428 | 1.06 | 1.2 | 1.03 | 1.46 | 1.14 | 1.04 | 1.07 | 1.04 | 0.971 | 0.988 | 0.386 | 0.385 | 0.386 | – | 0.348 |
| PC-3 [JPC-3] | 0.995 | 0.847 | 0.869 | 0.833 | 0.878 | 0.821 | 0.816 | 0.896 | 0.73 | 0.767 | 1.07 | 0.987 | 0.987 | 1.06 | 0.998 | 0.457 | 0.502 | 0.469 | – | 0.465 |
| PC-14 | 0.693 | 0.612 | 0.647 | 0.539 | 0.649 | 0.952 | 0.759 | 0.616 | 0.68 | 0.747 | 1.01 | 1.03 | 0.981 | 0.931 | 0.9 | 0.578 | 0.599 | 0.864 | – | 0.539 |
| RERF-LC-KJ | 0.513 | 0.452 | 0.471 | 0.456 | 0.403 | 0.829 | 0.729 | 0.726 | 0.653 | 0.696 | 0.871 | 0.912 | 0.899 | 0.952 | 0.864 | 0.469 | 0.42 | 0.389 | 0.408 | 0.376 |
| SK-LU-1 | 0.328 | 0.36 | 0.338 | 0.339 | 0.302 | 0.902 | 0.779 | 0.643 | 0.75 | 0.852 | 1.07 | 1.02 | 1.2 | 1.16 | 0.941 | 0.543 | 0.377 | 0.385 | 0.26 | 0.234 |
| SK-MES-1 | 0.991 | 0.775 | 0.933 | 0.804 | 0.694 | 1.27 | 1.03 | 1.09 | 0.925 | 1.04 | 1.08 | 1 | 0.996 | 1.09 | 0.909 | 0.62 | 0.404 | 0.341 | 0.263 | 0.2 |
| SW 1573 | 0.16 | 0.23 | 0.222 | 0.155 | 0.136 | 1.05 | 0.655 | 0.865 | 0.958 | 0.536 | 0.722 | 0.74 | 0.8 | 0.739 | 0.736 | 0.373 | 0.336 | 0.353 | 0.296 | 0.265 |
